# Source: patent US12478090B2, “Aerosolizable formulation” (NICOVENTURES TRADING LIMITED, priority 2018, dated 2025)
# “Also recorded” adds a separate entry of the source.
# What was measured:
# [1] = compared to base cyclodextrins such as β-cyclodextrin; cited from earlier work
# [2] = Diffusion-Ordered NMR Spectroscopy (DOSY): diffusion coefficient and residence time within cyclodextrin; type: physicochemical; details: for residency time within 2-hydroxy-propyl-β-cyclodextrin: inferred from DOSY NMR diffusion, Formulations 1 and 2 and spiked ratios 1:4:1 / 1:4:1:1
# Experimental: The interaction between cyclodextrin and menthol and cyclodextrin and nicotine (unprotonated and monoprotonated) was assessed using NMR spectroscopy. The study was conducted on formulations containing
# Formulation 1-90.0% (w/w) water, 0.9% (w/w) 1-menthol, 9% (w/w) 2-hydroxy-propyl-β-cyclodextrin, and 0.1% (w/w) nicotine.
# Formulation 2-89.9% (w/w) water, 0.9% (w/w) 1-menthol, 9% (w/w) 2-hydroxy-propyl-β-cyclodextrin, 0.1% (w/w) nicotine and 0.1% (w/w) citric acid.
# During the NMR studies the assessment of the diffusion coefficient and subsequent residence times of monoprotonated nicotine, unprotonated nicotine, menthol within 2-hydroxy-propyl-β-cyclodextrin. The diffusion coefficient and subsequent residence times were studied as they are understood to provide a qualitative assessment of the degree of interaction of the compound with the complexing agent with each of the components studied. It is understood that encapsulation is not a static state but a dynamic one in which materials are encapsulated (e.g. complexed or bound to an encapsulating agent) for a period of time before release after which they may be subsequently encapsulated. Therefore, decreased residence time indicates decreased interaction with the complexing agent.
# Diffusion-Ordered NMR Spectroscopy (DOSY) experiments were selected as suitable for assessment of diffusion times of nicotine and menthol solutions of individual constituents, in the formulation describe above and formulations with spike components to vary the ratios of constituents (nicotine: 2-hydroxy-propyl-β-cyclodextrin:menthol=1:4:1 and nicotine: 2-hydroxy-propyl-β-cyclodextrin:menthol:citric acid=1:4:1:1 molar ratios).
# [3] = nicotinium citrate gel added in place of nicotine; no heating or filtration steps
compound,measurement,setting,value
2-hydroxy-propyl-β-cyclodextrin,solubility in water,[1],increased solubility in water
CC1CCC(C(C)C)C(O)C1 (stereo not drawn) [menthol],residency time within 2-hydroxy-propyl-β-cyclodextrin,[2],higher than that of nicotine in both its monoprotonated and unprotonated form; also recorded: mono-protonated nicotine<unprotonated nicotine<menthol
CN1CCC[C@H]1c1cccnc1 [monoprotonated nicotine],diffusion coefficient,"[2]; DOSY NMR, aqueous formulation with menthol and 2-hydroxy-propyl-β-cyclodextrin, with vs without citric acid",faster diffusion coefficient compared to the nicotine without citric acid
same,residency time within 2-hydroxy-propyl-β-cyclodextrin,[2]; listed as mono-protonated nicotine,mono-protonated nicotine<unprotonated nicotine<menthol
CN1CCCC1c1cccnc1.O=C(O)CC(O)(CC(=O)O)C(=O)O [nicotinium citrate],visual precipitate in formulation,[3],lack of any visual precipitate
CN1CCC[C@H]1c1cccnc1 [unprotonated nicotine],residency time within 2-hydroxy-propyl-β-cyclodextrin,[2],higher residence within 2-hydroxy-propyl-β-cyclodextrin than mono-protonated nicotine; also recorded: mono-protonated nicotine<unprotonated nicotine<menthol
